US20120196918A1, “PREVENTING ISLET INFLAMMATION AND DYSFUNCTION AND MAINTAINING PROPER GLUCOSE LEVELS BY CONTROLLING eIF5A AND ITS HYPUSINATION” (priority 2009, published 2012)

Columns and labels:
[1] = system: STZ-treated C57BL/6J mice; test: Multiple low-dose streptozotocin (STZ) diabetes model in C57BL/6J mice; format: in vivo, mouse
Protocol: To test the role of eIF5A in cytokine-mediated islet dysfunction, efforts were made to identify a mouse model of islet inflammation. The multiple low dose streptozotocin (STZ) model, in which mice are subjected to five daily intraperitoneal doses (at 55 mg/kg body weight) of STZ, is considered to provoke local islet inflammation and cytokine release, in part through the recruitment of CD11c+ dendritic cells that release pro-inflammatory cytokines in the area of STZ-induced cellular destruction (27 and 28).
C57BL/6J mice were injected intraperitoneally with either stabilized siRNA against eIF5A (si-eIF5A) or control siRNA (si-Control) daily for three days, then subjected to the multiple low-dose STZ protocol (see schematic in FIG. 1a). […] The effect of administering si-eIF5A on islet viability following STZ treatment was determined by performing immunohistochemical analysis of the pancreata of mice. […] To quantify the differences in islet mass between STZ-treated and untreated animals, morphometry of insulin-stained pancreatic sections was performed.
Based on the observed data, if hypusination of eIF5A by DHS is required for cytokine responsiveness in islets, then inhibition of DHS in vivo should protect against low dose STZ diabetes. To test this, C57BL/6J mice were treated with GC7 or vehicle and then subjected to low dose STZ injections. GC7 was delivered in one of two different ways: either by daily bolus intraperitoneal injections (4 mg/kg/day) or by continuous subcutaneous delivery (40 μg/kg/h) using implanted osmotic pumps. A protocol similar to that shown in FIG. 1A was employed in these studies, with GC7 injections or pump implants starting 3 days prior to STZ injections.
Small interfering RNA (siRNA) studies: Stabilized siRNAs for intraperitoneal injections were custom synthesized by Dharmacon using the siSTABLE® modification. Groups of 10 week-old C57BL/6J male mice (from Jackson Labs) received daily intraperitoneal injections of 1.6 mg/kg siRNA prepared in 0.9% saline or vehicle alone (0.9% saline) for 3 days. For in vitro studies, islets from each group of injected mice were harvested on the fourth day and pooled prior to analysis. Injections with each siRNA were performed on at least 3 different occasions. siRNA sequences were as follows: siControl, 5′-[…]-3′; si-eIF5A, 5′-[…]-3′. For siRNA studies in the rat β cell-derived line INS-1 (832/13), cells were transfected with a SMART Pool® siRNA against rat eIF5A1 (Dharmacon, #L-083855-01) or non-targeting control siRNA #1 (Dharmacon) using DharmaFECT® transfection reagent (Dharmacon).
Immunostaining and morphometric assessment of β cell mass: Immunostaining of pancreatic sections proceeded as described previously (72). For assessment of islet cell death in pancreatic sections, the technique of terminal deoxynucleotidyl transferase dUTP nick end labeling (TUNEL) was performed using biotinylated 16-dUTP (Roche) and Texas Red Neutravidin (Invitrogen). Digital images of each islet at 40× magnification were acquired using an Axio-Observer D1 microscope (Zeiss) inverted fluorescent microscope equipped with a high-resolution color camera. TUNEL-positive/insulin-positive nuclei were counted manually by an observer blinded to sample identity, and data were re-coded as the average number of TUNEL-positive nuclei per islet. β cell mass was calculated as described previously (73), but with some modifications. Briefly, pancreata from 3 mice per treatment group were rapidly dissected and weighed, fixed in 4% paraformaldehyde, paraffin-embedded, and longitudinally sectioned. Three sections/pancreas (approx. 75 μm apart) were subsequently immunostained for insulin and counterstained with hematoxylin as described (74), and digital images of each section at 10× magnification were acquired on an Axio-Observer Z1 microscope (Zeiss) fitted with an AxioCam high resolution color camera. […]

[2] = system: iNOS; test: Cytokine-induced iNOS protein in human islets (immunoblot); format: cell-based; conditions: incubation with GC7, cytokines
From the text: eIF5A1 and eIF5A2 are the only proteins known to contain the unique amino acid hypusine at position 50. Hypusine is formed as a posttranslational modification of residue Lys50 in a reaction requiring spermidine and catalyzed by the sequential actions of the enzymes deoxyhypusine synthase (DHS) and deoxyhypusine hydroxylase (DOHH) (Chen, K Y, and Liu, A Y. Biochemistry and function of hypusine formation on eukaryotic initiation factor 5A. Biol Signals. 1997; 6(3):105-109). […] To further investigate the mechanism of eIF5A-regulated translation of Nos2, studies were performed following overnight incubation of cells with mimosine (an inhibitor of DOHH) and GC7 (an inhibitor of DHS). […]
Immunoblot and nitrite and iNOS assays: Whole cell extracts were resolved by electrophoresis on a 4-20% SDS-polyacrylamide gel, followed by immunoblot using anti-eIF5A1, anti-eIF5A2, anti-iNOS, anti-GFP, or anti-actin primary antibodies and fluorophore-labeled secondary antibodies. Immunoblots were visualized using the Li-Cor® Odyssey® system (Li-Cor Biosciences) and quantitated by scanning fluorometry using Odyssey Imaging v. […] Nitrite was quantitated by measuring nitric oxide-derived nitrite from INS-1 cell culture medium using the Griess reagent (Promega) according to the manufacturer's recommendations. iNOS activity was measured using a commercially available kit (Cayman).

## 5′-AACGGAAUGACUUCCAGCUGA-3′ (siSTABLE modification, further chemistry not given here) [si-eIF5A]
[1]; siRNA 1.6 mg/kg i.p. daily for 3 days, then multiple low-dose STZ, day 7
  average fasting blood glucose: 101 mg/dL
[1]; siRNA i.p., STZ, end of the study
  immunohistochemical staining for iNOS in islets: undetectable
[1]; siRNA i.p., multiple low-dose STZ
  islet number and insulin staining of pancreata (immunohistochemistry): relatively preserved islet number and insulin granularity
[1]; siRNA i.p., multiple low-dose STZ, compared to si-Control-injected mice
  glucose tolerance in IPGTT: improved glucose tolerance
[1]; siRNA i.p., multiple low-dose STZ, morphometry of insulin-stained sections
  reduction of β cell mass compared to non-STZ-treated controls: 1.4 fold
[1]; siRNA i.p., 24 h after the first STZ treatment
  iNOS induction in islets by immunoblot: attenuated

## NCCCCCCCN=C(N)N [GC7]
[1]; GC7 40 μg/kg/h continuous s.c. osmotic pump, started 3 days before STZ
  STZ-induced glucose intolerance (GTT), osmotic pump GC7: near-complete protection
[1]; GC7 4 mg/kg/day i.p. bolus, started 3 days before STZ
  STZ-induced glucose intolerance (GTT), intraperitoneal GC7: near-complete protection
[1]; GC7-injected animals, STZ
  β cell mass (histomorphometry): full preservation of mass
[1]; GC7-treated pump animals, STZ
  iNOS production in islets: suppression of iNOS production
[1]; GC7 plus STZ, STZ alone 0.78
  TUNEL+ cells per islet: 0.42
[1]; concurrent treatment with STZ
  serum IL-6 levels: did not affect IL-6 levels
[1]; pump-implanted animals, STZ
  insulin secretion at 0 and 30 min during glucose challenge: normal insulin secretory response
[2]
  iNOS protein levels in human islets: dose-dependent inhibition
